pIC50: −log10 of the molar value. Entries after “also recorded” stand apart in the source; their conditions may differ.
Legend:
[1] = test system: H23 KRAS-mutant NSCLC cells; experiment: MTT assay, H23; assay type: cell-based; details: KRAS-mutant NSCLC, 72 hours
Method: (§1) FIG. 2.7 Compound 673 is cytotoxic in KRAS-mutant NSCLC cells (A549 and H23), but is not toxic the KRAS wild-type NSCLC cells (H322). Cells were exposed to vehicle or compounds (μM) for 72 hours. Viable cells were evaluated by MTT assays.
Panc 10.05, H23 and HCT-116 cells express endogenous KRAS 12D, 12C and 13D mutants, respectively. Cells were exposed to DMSO vehicle or compounds at designated doses for 72 hours. Experiments were done in triplicate.

[2] = molecular target: T1, recombinant protein of human GATA2 (Homo sapiens, UniProt P23769); experiment: SPR analysis on amine-coupled GATA2; assay type: binding
T1 sequence (P23769 1-480): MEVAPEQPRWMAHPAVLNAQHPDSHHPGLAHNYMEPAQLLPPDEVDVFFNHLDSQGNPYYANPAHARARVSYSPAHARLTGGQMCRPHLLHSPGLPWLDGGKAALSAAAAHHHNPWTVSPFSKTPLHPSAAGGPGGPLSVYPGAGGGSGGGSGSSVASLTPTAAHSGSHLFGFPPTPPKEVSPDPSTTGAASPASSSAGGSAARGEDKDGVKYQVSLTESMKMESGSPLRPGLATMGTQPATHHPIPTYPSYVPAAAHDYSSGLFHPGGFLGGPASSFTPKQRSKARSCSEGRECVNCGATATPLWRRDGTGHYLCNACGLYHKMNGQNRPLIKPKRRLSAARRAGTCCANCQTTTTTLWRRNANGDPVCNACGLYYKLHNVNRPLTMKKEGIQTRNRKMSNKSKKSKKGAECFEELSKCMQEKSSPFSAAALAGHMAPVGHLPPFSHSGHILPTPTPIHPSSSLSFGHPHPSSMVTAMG
Text: In embodiments of the invention, the androgen-bound AR is regressing GATA2 expression and inhibition of AR via castration or use of antiandrogen releases such expression. […] Overexpression of GATA2 confers resistance to antiandrogen bicalutamide (Bic) (FIG. 2.9). Compound 673 is effective against the LNCaP stably transfected with GATA2-expressing plasmid (referred to as LNCaP-GATA2 cells) (FIG. 2.8).

[3] = test system: H322 KRAS wild-type NSCLC cells; experiment: MTT assay, H322; assay type: cell-based; details: 72 hours
Method: as §1

[4] = test system: fusion protein IRF3DBD-GATA2NTD; experiment: ISRE-luc reporter assay in PC3 cells, IRF3DBD-GATA2NTD; assay type: cell-based; details: 5 μM
ERG = molecular target: T2, ERG (Homo sapiens, UniProt P11308); experiment: ERG-dependent reporter assay in HEK293 cells; assay type: cell-based; parameters: expressed in transfected cells; host or cells: HEK293; details: PUx3-Luc reporter, 48 hours, designated doses
T2 sequence (P11308 1-486 isoform P11308-3): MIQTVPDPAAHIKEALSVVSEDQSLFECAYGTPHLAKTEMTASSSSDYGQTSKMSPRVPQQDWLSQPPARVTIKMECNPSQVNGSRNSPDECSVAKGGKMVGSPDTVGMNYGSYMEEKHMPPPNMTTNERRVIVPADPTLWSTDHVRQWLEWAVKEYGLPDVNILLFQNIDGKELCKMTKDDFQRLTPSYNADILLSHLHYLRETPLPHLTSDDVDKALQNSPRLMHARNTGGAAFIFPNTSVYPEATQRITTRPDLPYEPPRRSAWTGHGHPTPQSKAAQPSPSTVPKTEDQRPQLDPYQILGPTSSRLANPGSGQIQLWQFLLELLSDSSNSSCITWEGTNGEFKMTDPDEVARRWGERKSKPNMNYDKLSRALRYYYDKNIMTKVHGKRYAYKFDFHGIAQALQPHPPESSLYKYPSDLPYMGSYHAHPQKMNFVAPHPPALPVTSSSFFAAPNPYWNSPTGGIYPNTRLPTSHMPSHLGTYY
Method: HEK293 cells were transiently transfected with empty vector (for the NT) or ERG-expressing plasmid as well as pRL-TK (internal control) and PUx3-Luc reporter. Cells were then exposed to DMSO vehicle or compounds at designated doses for 48 hours. Experiments were done in triplicate.

[5] = test system: PSA-luc reporter in LNCaP-GATA2 cells; experiment: PSA-luc reporter assay in LNCaP-GATA2 cells, combination with bicalutamide; assay type: cell-based; details: equi-molar combination, 72 hours, FBS medium
Method: (§2) (A) PSA-luc reporter assay in LNCaP-GATA2 cells, which were exposed to DMSO vehicle, BIC, 673, or equi-molar combination of Bic and 673 for 72 hours in FBS medium. RLU, relative luciferase unit; (B) BrdU Cell Proliferation Assay (Assay Kit #6813, Cell Signaling Tech.). LNCaP-GATA2 cells were exposed to DMSO vehicle, Bic, 673 or equi-molar combination of Bic and 673 for 48 hours. In the last 8 hours, 10 μM BrdU was added to the plate. **p<0.001, ***p<0.001 when compared with BIC at the same doses; #p<0.05, ##p<0.001 when compared with 673 at the same doses.

[6] = test system: androgen receptor (AR) signaling in C4-2B prostate cancer cells; experiment: Western blot, AR signaling in C4-2B cells; assay type: cell-based
wild-type IRF3 = molecular target: T3, wild-type IRF3 (Homo sapiens, UniProt Q14653); experiment: ISRE-luc reporter assay in PC3 cells, wild-type IRF3; assay type: cell-based; details: 5 μM
T3 construct: host or cells: PC3
T3 sequence (Q14653 whole entry, species assumed): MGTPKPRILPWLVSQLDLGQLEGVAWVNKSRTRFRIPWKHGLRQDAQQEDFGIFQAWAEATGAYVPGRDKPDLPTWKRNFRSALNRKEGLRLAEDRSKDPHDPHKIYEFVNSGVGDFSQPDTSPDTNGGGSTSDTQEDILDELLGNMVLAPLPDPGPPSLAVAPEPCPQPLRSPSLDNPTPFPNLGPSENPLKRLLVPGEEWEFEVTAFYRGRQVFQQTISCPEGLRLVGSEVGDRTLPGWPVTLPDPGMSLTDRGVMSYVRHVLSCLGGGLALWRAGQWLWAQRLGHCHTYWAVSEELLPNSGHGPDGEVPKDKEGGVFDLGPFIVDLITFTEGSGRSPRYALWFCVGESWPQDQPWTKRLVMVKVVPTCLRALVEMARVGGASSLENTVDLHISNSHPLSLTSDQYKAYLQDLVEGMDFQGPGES

human GATA3 = molecular target: T4, human GATA3 (Homo sapiens, UniProt P23771); experiment: GATA3-dependent reporter assay in IHH cells; assay type: cell-based; details: 48 hours
T4 construct: expressed in transfected cells; host or cells: IHH
T4 sequence (P23771 whole entry): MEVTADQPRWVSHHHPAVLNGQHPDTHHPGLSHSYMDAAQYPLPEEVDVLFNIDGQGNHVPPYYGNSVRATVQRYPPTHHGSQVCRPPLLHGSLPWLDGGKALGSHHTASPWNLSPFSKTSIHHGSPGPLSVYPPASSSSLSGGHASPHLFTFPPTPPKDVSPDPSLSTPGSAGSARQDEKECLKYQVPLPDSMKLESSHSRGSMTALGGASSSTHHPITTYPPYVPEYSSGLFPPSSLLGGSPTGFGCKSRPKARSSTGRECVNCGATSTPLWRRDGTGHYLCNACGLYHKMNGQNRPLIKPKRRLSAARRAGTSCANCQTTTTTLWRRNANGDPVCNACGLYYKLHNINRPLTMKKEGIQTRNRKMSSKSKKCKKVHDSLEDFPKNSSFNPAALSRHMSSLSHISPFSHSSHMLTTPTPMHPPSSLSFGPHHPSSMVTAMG
Method: The IHH cells were transiently transfected with empty vector (for the NT) or human GATA3-expressing plasmid as well as pRL-TK (internal control) and GATA-Luc reporter plasmids. Cells were exposed to DMSO vehicle or compounds for 48 hours. Experiments were done in triplicate.

human STING (hSTING) = molecular target: T5, human STING (hSTING) (Homo sapiens, UniProt Q86WV6); experiment: hSTING ISRE-luc reporter assay in 293T cells; assay type: cell-based; details: 24 hours
T5 construct: expressed in transfected cells; host or cells: 293T
T5 sequence (Q86WV6 whole entry H232R): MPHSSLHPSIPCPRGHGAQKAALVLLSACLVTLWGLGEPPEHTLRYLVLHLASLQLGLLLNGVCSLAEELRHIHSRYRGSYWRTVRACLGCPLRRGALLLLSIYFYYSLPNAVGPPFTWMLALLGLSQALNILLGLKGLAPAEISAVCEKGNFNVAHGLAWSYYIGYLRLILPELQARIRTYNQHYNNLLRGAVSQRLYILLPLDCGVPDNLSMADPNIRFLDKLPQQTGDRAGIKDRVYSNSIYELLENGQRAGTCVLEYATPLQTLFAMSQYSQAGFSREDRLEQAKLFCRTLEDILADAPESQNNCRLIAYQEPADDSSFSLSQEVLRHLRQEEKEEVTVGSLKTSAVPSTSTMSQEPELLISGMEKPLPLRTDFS
Method: ISRE-luc (reporter), pRL-TK (internal control) and hSTING-expressing plasmids were transiently transfected into 293T cells. Cells were exposed to DMSO vehicle control or compounds for 24 hours. Experiments were done in triplicate.

[7] = test system: A549 KRAS-mutant NSCLC cells; experiment: MTT assay, A549; assay type: cell-based; details: 72 hours
Method: as §1

[8] = test system: GATA2 expression in C4-2B cells; experiment: Western blot, GATA2 expression in C4-2B cells; assay type: cell-based
human GATA2 = molecular target: T6, human GATA2 (Homo sapiens, UniProt P23769); experiment: GATA2-dependent reporter assay in IHH cells; assay type: cell-based; details: GATA-Luc reporter, 48 h
T6 construct: expressed in transfected cells; host or cells: IHH
T6 sequence (P23769 1-480): T1 sequence (P23769 1-480)
Method: K7174 is a known GATA2 inhibitor. The IHH cells were transiently transfected with empty vector (for the NT) or human GATA2-expressing plasmid as well as pRL-TK (internal control) and GATA-Luc reporter plasmids. Cells were exposed to DMSO vehicle or compounds for 48 h. Experiments were in triplicate.

[9] = test system: AR signaling in LNCaP-GATA2, HP-LNCaP, C4-2B and 22Rv1 cells; experiment: Western blot, AR signaling in LNCaP-GATA2 and CRPC cells; assay type: cell-based; details: LNCaP-GATA2 in FBS medium, 22Rv1 in CSS medium, 72 hours
Method: FIG. 2.11 By breaking AR-GATA2 feedback loop, compound 673 suppresses the AR signaling in CRPC cells. […] Cells were exposed to DMSO vehicle, BIC, 673 or K7174 at designated doses (μM) for 72 hours.

LNCaP-GATA2 cells = experiment: BrdU cell proliferation assay in LNCaP-GATA2 cells, combination with bicalutamide; assay type: cell-based; details: equi-molar combination, 48 hours
Method: as §2

[10] = test system: GATA family members (GATA1, GATA2, GATA3, GATA4); experiment: GATA1-, GATA2-, GATA3- and GATA4-dependent reporter assays in IHH cells; assay type: cell-based; details: CSS medium, 48 hours
Method: In contrast, K7174 is not selective. GATA1-, GATA2-, GATA3- and GATA4-dependent reporter assays were done in IHH cells which were exposed to DMSO vehicle, compound 673 or K7174 (μM) in CSS medium for 48 hours.

GATA = details: read-out: IC50 in reporter assay; cited from earlier work

| Compound | cytotoxicity in H23 cells (MTT) [1] | dose-dependent binding to amine-coupled GATA2 (SPR) ([2]; 0-50 μM, 2-fold dilution series) | binding to amine-coupled GATA2 (SPR) ([2]; 50 μM each) | cytotoxicity in H322 cells (MTT) [3] | activity against fusion protein IRF3DBD-GATA2NTD (ISRE-luc) [4] | ERG inhibition in ERG-dependent reporter assay (ERG) | effect of combination with bicalutamide (BIC) in PSA-luc reporter assay [5] | suppression of androgen receptor (AR) signaling (Western blot) [6] | activity against wild-type IRF3 (ISRE-luc) (wild-type IRF3) | activity against GATA3 in GATA3-dependent reporter assay (human GATA3; 10 μM) | activity against GATA3 in GATA3-dependent reporter assay (human GATA3; compounds at 5 μM) | activation of hSTING in ISRE-luc reporter assay (human STING (hSTING)) | cytotoxicity in A549 cells (MTT) [7] | inhibition of GATA2 expression (Western blot) [8] | GATA2 inhibition in GATA2-dependent reporter assay (human GATA2) | suppression of AR signaling in LNCaP-GATA2 and CRPC cells (WB) [9] | effect of combination with bicalutamide (BIC) in BrdU cell proliferation assay (LNCaP-GATA2 cells) | selectivity for GATA2 among GATA family members [10] | pIC50 (GATA) |
| --- | --- | --- | --- | --- | --- | --- | --- | --- | --- | --- | --- | --- | --- | --- | --- | --- | --- | --- | --- |
| Fc1cccc(-c2nc(CCCc3c[nH]c4ccccc34)oc2-c2cccc(F)c2)c1 [Compound 673] | cytotoxic | Specific and dose-dependent binding | Direct binding; also recorded: Specific binding | not toxic | active | ERG inhibitors | Synergistic effect | potently inhibits the AR signaling; also recorded: suppresses the androgen receptor (AR) signaling | inactive | inactive against GATA3 | inactive against GATA3 | activate hSTING | cytotoxic | inhibits GATA2 expression | GATA2 inhibitors | suppresses the AR signalling in CRPC cells; also recorded: effective in suppressing AR signaling | Synergistic effect | selectively inhibits GATA2 |  |
| COc1cc(/C=C/CCCN2CCCN(CCC/C=C/c3cc(OC)c(OC)c(OC)c3)CC2)cc(OC)c1OC [Compound K7174, K7174, reference compound] |  |  |  |  |  |  |  |  |  |  | active against GATA3 |  |  |  |  |  |  | not selective | ~4.82 |

— patent US10844051B2, “Substituted oxazoles for the treatment of cancer” (THE ROYAL INSTITUTION FOR THE ADCANCEMENT OF …, priority 2015, dated 2020)
